Tests used:
PD-1/PD-L1 = PD-1/PD-L1 (Homo sapiens (Human), UniProt Q9NZQ7); experiment: Homogeneous Time-Resolved Fluorescence (HTRF) PD-1/PD-L1 binding assay; conditions: recombinant human PD-1 and PD-L1
Method: The assays were conducted in a standard black 384-well polystyrene plate with a final volume of 20 μL. Inhibitors were first serially diluted in DMSO and then added to the plate wells before the addition of other reaction components. The final concentration of DMSO in the assay was 1%. The assays were carried out at 25° C. in the PBS buffer (pH 7.4) with 0.05% Tween-20 and 0.1% BSA. Recombinant human PD-L1 protein (19-238) with a His-tag at the C-terminus was purchased from AcroBiosystems (PD1-H5229). Recombinant human PD-1 protein (25-167) with Fc tag at the C-terminus was also purchased from AcroBiosystems (PD1-H5257). PD-L1 and PD-1 proteins were diluted in the assay buffer and 10 μL was added to the plate well. Plates were centrifuged and proteins were preincubated with inhibitors for 40 minutes. The incubation was followed by the addition of 10 μL of HTRF detection buffer supplemented with Europium cryptate-labeled anti-human IgG (PerkinElmer-AD0212) specific for Fc and anti-His antibody conjugated to SureLight®-Allophycocyanin (APC, PerkinElmer-AD0059H). After centrifugation, the plate was incubated at 25° C. for 60 min. before reading on a PHERAstar FS plate reader (665 nm/620 nm ratio). Final concentrations in the assay were—3 nM PD1, 10 nM PD-L1, 1 nM europium anti-human IgG and 20 nM anti-His-Allophycocyanin. IC50 determination was performed by fitting the curve of percent control activity versus the log of the inhibitor concentration using the GraphPad Prism 5.0 software.

[1] = system: U2OS/PD-L1 cells and Jurkat-PD-1-SHP cells; experiment: Src homology region 2 domain-containing phosphatase (SHP) assay; format: cell-based; conditions: Homo sapiens, U2OS; PathHunter chemiluminescence, 2 hours
Method: U2OS/PD-L1 cells (DiscoveRx Corporation) were maintained in McCoy's 5A medium with addition of 10% FBS, 0.25 μg/mL Puromycin. After removing the culture media, the cell medium was replaced with assay medium (RPMI1640 medium with 1% FBS). The U2OS/PD-L1 cells were then added in 384-well black clear bottom assay plate (CELLCOAT® Tissue Culture Plates, Greiner Bio-One) at 5000 cells per well in 20 μL assay medium. Test compounds were prepared by serial dilution in DMSO and 125 nL compound were first transferred to the 384 REMP plate well (Thermofisher) by ECHO liquid handler (Labcyte) followed with addition of 27.5 μL assay medium. 5 µL/well compounds in the assay medium were transferred to the cell plate with 0.05% DMSO in the final assay at 0.25 μM. Jurkat-PD-1-SHP cells (DiscoveRx Corporation) were cultured in RPMI1640 medium supplemented with 10% FBS, 250 μg/mL Hygromycin B, 500 μg/mL G418. After the replacement of culture media with assay medium, 5,000 Jurkat-PD-1-SHP cells in 20 μL were dispensed into each well. The assay plate was incubated at 37° C., 5% CO2 for 2 hours before 2.5 μL PathHunter reagent 1 (DiscoveRx Corporation) were added to each well. The assay plate was shaken for 1 min at 350 rpm in the dark followed with addition of 10 μL PathHunter reagent 2 (DiscoveRx Corporation). Chemiluminescent signal was recorded with TopCount reader (Perkin Elmer) after incubation at room temperature for 1 hour. Wells with DMSO were served as the positive controls and wells containing no cells were used as negative controls. IC50 determination was performed by fitting the curve of percentage of control activity versus the log of the compound concentration using the GraphPad Prism 6.0 software.

[2] = system: PD-L1 aAPC/CHO-K1 cells and Jurkat-PD-1-NFAT effector cells; experiment: Nuclear factor of activated T-cells (NFAT) assay; format: cell-based; conditions: Cricetulus griseus, CHO-K1; luminescence, 24 hours
Method: PD-L1 aAPC/CHO-Klcells (Promega) were maintained in F-12 medium with addition of 10% FBS, 200 μg/mL Hygromycin B, 250 μg/mL Geneticin (G418). Jurkat-PD-1-NFAT effector cells (Promega) were cultured in RPMI 1640 medium supplemented with 10% FBS, 100 μg/mL Hygromycin B, 500 μg/mL G418. The culture media of PD-L1 aAPC/CHO-K1 cells were first replaced with assay medium (RPMI1640 medium with 1% FBS). The PD-L1 aAPC/CHO-Klcells were then added in a white 384-well white clear bottom assay plate (CELLCOAT® Tissue Culture Plates, Greiner Bio-One) at 8000 per well in 10 μL assay medium. Test compounds were prepared by serial dilution in DMSO and 0.8 μL test compounds in DMSO were first transferred to the 384 REMP plate well (Thermofisher) by PlateMate Plus (Thermofisher) followed with addition of 50 μL plating medium. 5 μL compounds in the assay medium were transferred to the cells with 0.4% DMSO in the final assay at 2 μM. After removing the culture media, 10,000 Jurkat-PD-1-NFAT effector cells in 5 μL assay medium was dispensed into each well. The assay plate was incubated at 37° C., 5% CO2 for 24 hours. After the assay plate was equilibrated to room temp for 15 minutes, 20 μL/well of Bio-Glo™ reagent (Promega) were added. After 8 minutes incubation at room temperature, luminescence was read at with Pherastar microplate reader (BMG Labtech). The fold of induction (FOI) was calculated based on the ratio of luminescence normalized to the DMSO wells within each assay plate. The maximum percentage of induction was reported based on the ratio between the highest FOI of each compound and the maximum FOI of control compound within each assay plate. Wells with DMSO were served as the negative controls and wells containing control compound with the highest FOI were used as positive controls. EC50 determination was performed by fitting the curve of percent control activity versus the log of the compound concentration using the GraphPad Prism 6.0 software.

PD-L1 = PD-L1 (Homo sapiens (Human), UniProt Q9NZQ7); experiment: PD-L1 whole blood internalization assay; format: cell-based; conditions: PD-L1 internalization in human whole blood, CD14+ cells, interferon γ, 24 hour
PD-L1, sequence (Q9NZQ7 19-290): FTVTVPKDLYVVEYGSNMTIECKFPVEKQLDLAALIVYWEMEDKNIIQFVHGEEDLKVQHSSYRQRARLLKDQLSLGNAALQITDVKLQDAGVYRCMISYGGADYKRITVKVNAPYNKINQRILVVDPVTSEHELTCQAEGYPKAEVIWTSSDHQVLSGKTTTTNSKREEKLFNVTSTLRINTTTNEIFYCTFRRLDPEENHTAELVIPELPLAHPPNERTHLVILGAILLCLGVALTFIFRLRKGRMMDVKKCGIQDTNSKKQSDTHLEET
Method: To determine PD-L1 internalization in human whole blood, normal human blood (Biological Specialty Corp, Colmar. Pa.) was incubated in the presence or absence of a concentration range of test compounds and 1 ng/mL human interferon γ (R&D Systems Inc. Minn. […] Blood was then stained with PD-L1 (MIH1, eBioscience; or BD Biosciences San Jose, Calif.), CD14 (Life Technologies, Carlsbad, Calif.) for 30 minutes in the dark at room temperature. Whole Blood/red cells were lysed/fixed (lysis buffer BD Biosciences) for 5 minutes at 37° C. in the dark and then centrifuged at 1600 RPM for 5 minutes. Cells were resuspended in Stain Buffer (BD Bioscience, San Jose, Calif.) and transferred into 96 well round bottom plates (Corning). Cells were gated on CD14+(BD Biosciences) and PD-L1 expression determined by mean fluorescence intensity (MFI) (BD LSRFortessa™ X-20). IC50 determination was performed by fitting the curve of compound percent inhibition versus the log of the compound concentration using the GraphPad Prism 7.0 software.

PD-1/PD-L1, sequence (Q9NZQ7 19-238): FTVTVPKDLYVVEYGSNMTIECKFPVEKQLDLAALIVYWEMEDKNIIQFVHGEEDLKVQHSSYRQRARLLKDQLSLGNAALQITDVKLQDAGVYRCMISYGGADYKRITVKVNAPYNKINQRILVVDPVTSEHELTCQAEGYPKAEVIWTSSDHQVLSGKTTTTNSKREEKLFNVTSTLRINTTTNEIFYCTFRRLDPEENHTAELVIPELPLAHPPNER

Row | IC50 (PD-1/PD-L1) | IC50 [1] | IC50 (PD-L1) | Structure (SMILES) | EC50 [2]
1 | 1.8 nM | 3 nM | 24 nM | Cc1c(Nc2nc(C(F)F)nc3cc(CN4CC(O)C4)cnc23)cccc1-c1cccc(NC(=O)c2nc3c(n2C)CCN(CCC24CCC(C(=O)O)(CC2)C4)C3)c1Cl [Example 13, 4-(2-(2-((2-chloro-3′-((2-(difluoromethyl)-7-((3-hydroxyazetidine-1-yl)methyl)pyrido[3,2-d]pyrimidin-4-yl)amino)-2′-methyl-[1,1′-biphenyl]-3-yl)carbamoyl)-1-methyl-1,4,6,7-tetrahydro-5H-imidazo[4,5-c]pyridin-5-yl)ethyl)bicyclo[2.2.1]heptane-1-carboxylic Acid] | 3 nM
2 | 1.7 nM | 3 nM | 20 nM | Cc1c(Nc2nc(C(F)F)nc3cc(CN4CC(C)(O)C4)cnc23)cccc1-c1cccc(NC(=O)c2nc3c(n2C)CCN(CCC24CCC(C(=O)O)(CC2)C4)C3)c1Cl [Example 14, 4-(2-(2-((2-chloro-3′-((2-(difluoromethyl)-7-((3-hydroxy-3-methylazetidin-1-yl)methyl)pyrido[3,2-d]pyrimidin-4-yl)amino)-2′-methyl-[1,1′-biphenyl]-3-yl)carbamoyl)-1-methyl-1,4,6,7-tetrahydro-5H-imidazo[4,5-c]pyridin-5-yl)ethyl)bicyclo[2.2.1]heptane-1-carboxylic Acid] | 3 nM
3 | 1.5 nM | 2.9 nM | 57 nM | Cc1c(NC(=O)c2nc3c(n2C)CCN(CCC24CCC(C(=O)O)(CC2)C4)C3)cccc1-c1cccc(Nc2nc(C(F)F)nc3cc(CN4CC[C@H](O)C4)cnc23)c1C [Example 15, (S)-4-(2-(2-((3′-((2-(difluoromethyl)-7-((3-hydroxypyrrolidin-1-yl)methyl)pyrido[3,2-d]pyrimidin-4-yl)amino)-2,2′-dimethyl-[1,1′-biphenyl]-3-yl)carbamoyl)-1-methyl-1,4,6,7-tetrahydro-5H-imidazo[4,5-c]pyridin-5-yl)ethyl)bicyclo[2.2.1]heptane-1-carboxylic Acid] | 9 nM
4 | 1.7 nM | 2.4 nM | 53 nM | Cc1c(NC(=O)c2nc3c(n2C)CCN(CCC24CCC(C(=O)O)(CC2)C4)C3)cccc1-c1cccc(Nc2nc(C(F)F)nc3cc(CN4CC[C@](C)(O)C4)cnc23)c1C [Example 16, (S)-4-(2-(2-((3′-((2-(difluoromethyl)-7-((3-hydroxy-3-methylpyrrolidin-1-yl)methyl)pyrido[3,2-d]pyrimidin-4-yl)amino)-2,2′-dimethyl-[1,1′-biphenyl]-3-yl)carbamoyl)-1-methyl-1,4,6,7-tetrahydro-5H-imidazo[4,5-c]pyridin-5-yl)ethyl)bicyclo[2.2.1]heptane-1-carboxylic Acid] | 6 nM

Continued, molecule first:

Row | Structure (SMILES) | IC50 (PD-1/PD-L1) | IC50 [1] | IC50 (PD-L1) | EC50 [2]
5 | Cc1c(Nc2nc(C(F)F)nc3cc(CN[C@@H]4CCC[C@@H]4O)cnc23)cccc1-c1cccc(NC(=O)c2nc3c(n2C)CCN(CCC24CCC(C(=O)O)(CC2)C4)C3)c1Cl [Example 9, 4-(2-(2-((2-chloro-3′-((2-(difluoromethyl)-7-((((1R,2S)-2-hydroxycyclopentyl)amino)methyl)pyrido[3,2-d]pyrimidin-4-yl)amino)-2′-methyl-[1,1′-biphenyl]-3-yl)carbamoyl)-1-methyl-1,4,6,7-tetrahydro-5H-imidazo[4,5-c]pyridin-5-yl)ethyl)bicyclo[2.2.1]heptane-1-carboxylic Acid] | 1.7 nM | 4 nM | 6.4 nM | 3 nM
6 | Cc1c(Nc2nc(C(F)F)nc3cc(CN4C[C@H](O)C[C@@H]4C)cnc23)cccc1-c1cccc(NC(=O)c2nc3c(n2C)CCN(CCC24CCC(C(=O)O)(CC2)C4)C3)c1Cl [Example 10, 4-(2-(2-((2-chloro-3′-((2-(difluoromethyl)-7-(((2S,4R)-4-hydroxy-2-methylpyrrolidin-1-yl)methyl)pyrido[3,2-d]pyrimidin-4-yl)amino)-2′-methyl-[1,1′-biphenyl]-3-yl)carbamoyl)-1-methyl-1,4,6,7-tetrahydro-5H-imidazo[4,5-c]pyridin-5-yl)ethyl)bicyclo[2.2.1]heptane-1-carboxylic Acid] | 1.5 nM | 4 nM | 35 nM | 4 nM
7 | Cc1c(Nc2nc(C(F)F)nc3cc(CN4C[C@H](O)C[C@H]4C)cnc23)cccc1-c1cccc(NC(=O)c2nc3c(n2C)CCN(CCC24CCC(C(=O)O)(CC2)C4)C3)c1Cl [Example 11, 4-(2-(2-((2-chloro-3′-((2-(difluoromethyl)-7-(((2R,4R)-4-hydroxy-2-methylpyrrolidin-1-yl)methyl)pyrido[3,2-d]pyrimidin-4-yl)amino)-2′-methyl-[1,1′-biphenyl]-3-yl)carbamoyl)-1-methyl-1,4,6,7-tetrahydro-5H-imidazo[4,5-c]pyridin-5-yl)ethyl)bicyclo[2.2.1]heptane-1-carboxylic Acid] | 1.5 nM | 3 nM | 27 nM | 5 nM
8 | Cc1c(Nc2nc(C(F)F)nc3cc(CN4C[C@@H](O)C[C@H]4C)cnc23)cccc1-c1cccc(NC(=O)c2nc3c(n2C)CCN(CCC24CCC(C(=O)O)(CC2)C4)C3)c1Cl [Example 12, 4-(2-(2-((2-chloro-3′-((2-(difluoromethyl)-7-(((2R,4S)-4-hydroxy-2-methylpyrrolidin-1-yl)methyl)pyrido[3,2-d]pyrimidin-4-yl)amino)-2′-methyl-[1,1′-biphenyl]-3-yl)carbamoyl)-1-methyl-1,4,6,7-tetrahydro-5H-imidazo[4,5-c]pyridin-5-yl)ethyl)bicyclo[2.2.1]heptane-1-carboxylic Acid] | 1.5 nM | 3 nM | 30 nM | 41 nM

— patent US11401279B2, “Pyrido[3,2-d]pyrimidine compounds as immunomodulators” (Incyte Corporation, priority 2019, dated 2022)
